Measured values: patent US20100267561A1, “HERBICIDAL PYRIDAZINONE DERIVATIVES” (priority 2007, published 2010)

Key:
Format in all cases: in vivo
[1] = system: ducksalad (Heteranthera limosa); assay: Test B flooded paddy test plant response; details: Flood (flooded paddy test), scale 0 to 100, 0 no effect, 100 complete control
Method in brief: (§1)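 Step one: raise plants to 2 leaves. Step two: flood pots 3 cm over the soil and apply compound into the water, keeping this depth. Step three: after 13–15 greenhouse days, score visually versus controls, 0–100, where 100 means complete control.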

[2] = system: barnyardgrass (Echinochloa crus-galli); assay: Test B flooded paddy test plant response
Method in brief: as §1

rice (Oryza sativa) = assay: Test B flooded paddy test plant response
Method in brief: as §1

[3] = system: umbrella sedge (Cyperus difformis); assay: Test B flooded paddy test plant response
Method in brief: as §1

[4] = system: wheat (Triticum aestivum); assay: Test B pre-/postemergence plant response; details: for Wheat plant response rating: 8 g ai/ha
Method in brief: (§2)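 Preemergence and postemergence (plants 2-18 cm, 1- to 4-leaf stage) applications used test chemicals in a non-phytotoxic solvent with surfactant. Plants were held in a greenhouse 13 to 15 days, then rated visually against controls on a 0-100 scale (0 no effect, 100 complete control).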

[5] = system: downy bromegrass (Bromus tectorum); assay: Test B pre-/postemergence plant response; details: for Bromegrass, Downy plant response rating: 8 g ai/ha
Method in brief: as §2

[6] = system: morningglory (Ipomoea coccinea); assay: Test B pre-/postemergence plant response; details: for Morningglory plant response rating: 8 g ai/ha
Method in brief: as §2

[7] = system: eastern black (E.B.) nightshade (Solanum ptycanthum); assay: Test B pre-/postemergence plant response; details: Preemergence; for Nightshade, E. B. plant response rating: 8 g ai/ha
Method in brief: as §2

[8] = system: goosegrass (Eleusine indica); assay: Test B pre-/postemergence plant response; details: for Goosegrass plant response rating: 8 g ai/ha
Method in brief: as §2

soybean (Glycine max) = assay: Test B pre-/postemergence plant response; details: for Soybean plant response rating: 8 g ai/ha
Method in brief: as §2

[9] = system: surinam grass (Brachiaria decumbens); assay: Test B pre-/postemergence plant response; details: for Surinam Grass plant response rating: 8 g ai/ha
Method in brief: as §2

[10] = system: giant foxtail (Setaria faberii); assay: Test B pre-/postemergence plant response; details: for Foxtail, Giant plant response rating: 8 g ai/ha
Method in brief: as §2

[11] = system: Russian thistle (Salsola iberica); assay: Test B pre-/postemergence plant response; details: Preemergence; for Russian Thistle plant response rating: 8 g ai/ha
Method in brief: as §2

[12] = system: common (oilseed) sunflower (Helianthus annuus); assay: Test B pre-/postemergence plant response; details: Preemergence; for Sunflower plant response rating: 8 g ai/ha
Method in brief: as §2

[13] = Flood (flooded paddy test), 62 g ai/ha, scale 0 to 100, 0 no effect, 100 complete control
[14] = Flood (flooded paddy test), 125 g ai/ha, scale 0 to 100, 0 no effect, 100 complete control
[15] = Flood (flooded paddy test), 250 g ai/ha, scale 0 to 100, 0 no effect, 100 complete control
[16] = Flood, 31 g ai/ha, scale 0 to 100
[17] = Postemergence, 16 g ai/ha, scale 0 to 100
[18] = Postemergence, 62 g ai/ha, scale 0 to 100, 0 no effect, 100 complete control
[19] = Preemergence, 16 g ai/ha, scale 0 to 100 (0 no effect, 100 complete control)
[20] = Preemergence, 31 g ai/ha, 0 to 100 scale, 0 no effect, 100 complete control
[21] = Preemergence, 62 g ai/ha, scale 0 to 100
[22] = Postemergence, 31 g ai/ha, scale 0 to 100, 0 no effect, 100 complete control
[23] = 16 g ai/ha, scale 0 to 100 (0 no effect, 100 complete control)
[24] = 31 g ai/ha, 0 to 100 scale, 0 no effect, 100 complete control
[25] = Preemergence, 31 g ai/ha, scale 0 to 100 (0 no effect, 100 complete control)
[26] = Preemergence, 62 g ai/ha, 0 to 100 scale, 0 no effect, 100 complete control
[27] = 31 g ai/ha, scale 0 to 100 (0 no effect, 100 complete control)

Cc1cc(-c2ccc(Cl)cc2)nn1-c1c(OC(=O)CC(C)C)cnn(C)c1=O [Compound 37]
0: Plant response rating, Rice (rice (Oryza sativa); [16]) | Plant response rating, Sedge, Umbrella [3, 13] | Plant response rating, Sedge, Umbrella [3, 14] | Plant response rating, Wheat [4, 19] | Wheat plant response rating ([4]; Preemergence, scale 0 to 100) | Bromegrass, Downy plant response rating ([5]; postemergence, 0-100 scale) | Bromegrass, Downy plant response rating ([5]; Preemergence, scale 0 to 100) | Morningglory plant response rating ([6]; postemergence, 0-100 scale) | Plant response rating, Morningglory [6, 17] | Plant response rating, Morningglory [6, 22] | Plant response rating, Morningglory [6, 18] | Plant response rating, Morningglory [6, 19] | Plant response rating, Morningglory [6, 20] | Plant response rating, Morningglory [6, 21] | Morningglory plant response rating ([6]; Preemergence, scale 0 to 100) | Plant response rating, Nightshade, E. B. [7, 23] | Plant response rating, Nightshade, E. B. [7, 24] | Plant response rating, Nightshade, E. B. ([7]; 62 g ai/ha, scale 0 to 100) | Nightshade, E. B. plant response rating ([7]; scale 0 to 100) | Soybean plant response rating (soybean (Glycine max); postemergence, 0-100 scale) | Plant response rating, Soybean (soybean (Glycine max); [17]) | Plant response rating, Soybean (soybean (Glycine max); [18]) | Plant response rating, Soybean (soybean (Glycine max); [19]) | Plant response rating, Soybean (soybean (Glycine max); [20]) | Plant response rating, Soybean (soybean (Glycine max); [21]) | Soybean plant response rating (soybean (Glycine max); Preemergence, scale 0 to 100) | Plant response rating, Russian Thistle [11, 23] | Plant response rating, Russian Thistle [11, 24] | Russian Thistle plant response rating ([11]; scale 0 to 100) | Plant response rating, Sunflower [12, 23] | Plant response rating, Sunflower [12, 24] | Sunflower plant response rating ([12]; scale 0 to 100)
30: Plant response rating, Barnyardgrass [2, 16] | Plant response rating, Bromegrass, Downy [5, 19] | Foxtail, Giant plant response rating ([10]; postemergence, 0-100 scale) | Plant response rating, Sunflower ([12]; 62 g ai/ha, scale 0 to 100)
60: Plant response rating, Barnyardgrass [2, 13] | Plant response rating, Sedge, Umbrella [3, 15] | Plant response rating, Bromegrass, Downy [5, 20]
70: Plant response rating, Ducksalad ([1]; 62 g ai/ha) | Plant response rating, Ducksalad ([1]; 125 g ai/ha) | Plant response rating, Rice (rice (Oryza sativa); [13]) | Plant response rating, Wheat [4, 21] | Plant response rating, Foxtail, Giant [10, 17]
80: Plant response rating, Rice (rice (Oryza sativa); [14]) | Plant response rating, Bromegrass, Downy [5, 21]
85: Plant response rating, Surinam Grass [9, 19] | Plant response rating, Foxtail, Giant [10, 22]
15: Wheat plant response rating ([4]; postemergence, 0-100 scale)
100: Plant response rating, Barnyardgrass [2, 14] | Plant response rating, Barnyardgrass [2, 15] | Goosegrass plant response rating ([8]; postemergence, 0-100 scale) | Plant response rating, Goosegrass [8, 17] | Plant response rating, Goosegrass [8, 22] | Plant response rating, Goosegrass [8, 18] | Plant response rating, Goosegrass [8, 21] | Plant response rating, Surinam Grass [9, 17] | Plant response rating, Surinam Grass [9, 18] | Plant response rating, Surinam Grass [9, 21] | Plant response rating, Foxtail, Giant [10, 18] | Plant response rating, Foxtail, Giant [10, 19] | Plant response rating, Foxtail, Giant [10, 20] | Plant response rating, Foxtail, Giant [10, 21] | Foxtail, Giant plant response rating ([10]; Preemergence, scale 0 to 100)
90: Plant response rating, Rice (rice (Oryza sativa); [15]) | Plant response rating, Goosegrass [8, 19] | Plant response rating, Russian Thistle ([11]; 62 g ai/ha, scale 0 to 100)
50: Plant response rating, Wheat [4, 17]
95: Plant response rating, Wheat [4, 18] | Surinam Grass plant response rating ([9]; postemergence, 0-100 scale)
55: Plant response rating, Bromegrass, Downy [5, 17] | Plant response rating, Bromegrass, Downy [5, 22]
65: Surinam Grass plant response rating ([9]; Preemergence, scale 0 to 100)
98: Plant response rating, Goosegrass [8, 20] | Plant response rating, Surinam Grass [9, 20]
75: Plant response rating, Ducksalad ([1]; 250 g ai/ha) | Plant response rating, Bromegrass, Downy [5, 18] | Goosegrass plant response rating ([8]; Preemergence, scale 0 to 100)
5: Plant response rating, Wheat [4, 20]

Cc1ccc(-c2ccc(Cl)cc2)cc1-c1c(O)cnn(C)c1=O [Compound 46]
5: Plant response rating, Bromegrass, Downy [5, 21]
75: Plant response rating, Sedge, Umbrella [3, 15]
95: Plant response rating, Foxtail, Giant [10, 20]
60: Plant response rating, Sedge, Umbrella [3, 14]
50: Plant response rating, Sedge, Umbrella [3, 13]
85: Plant response rating, Ducksalad ([1]; 250 g ai/ha)
35: Plant response rating, Rice (rice (Oryza sativa); [15])
20: Plant response rating, Rice (rice (Oryza sativa); [14]) | Plant response rating, Nightshade, E. B. [7, 27]
45: Plant response rating, Ducksalad ([1]; 125 g ai/ha)
30: Plant response rating, Ducksalad ([1]; 62 g ai/ha) | Plant response rating, Barnyardgrass [2, 14]
100: Plant response rating, Nightshade, E. B. ([7]; 62 g ai/ha, scale 0 to 100) | Plant response rating, Goosegrass [8, 19] | Plant response rating, Goosegrass [8, 20] | Plant response rating, Goosegrass [8, 21] | Plant response rating, Foxtail, Giant [10, 21]
15: Plant response rating, Foxtail, Giant [10, 19]
0: Plant response rating, Barnyardgrass [2, 13] | Plant response rating, Barnyardgrass [2, 16] | Plant response rating, Rice (rice (Oryza sativa); [13]) | Plant response rating, Rice (rice (Oryza sativa); [16]) | Plant response rating, Wheat [4, 19] | Plant response rating, Wheat [4, 25] | Plant response rating, Wheat [4, 26] | Wheat plant response rating ([4]; Preemergence, scale 0 to 100) | Plant response rating, Bromegrass, Downy [5, 19] | Plant response rating, Bromegrass, Downy [5, 20] | Bromegrass, Downy plant response rating ([5]; Preemergence, scale 0 to 100) | Plant response rating, Morningglory [6, 19] | Plant response rating, Morningglory [6, 25] | Plant response rating, Morningglory [6, 21] | Morningglory plant response rating ([6]; Preemergence, scale 0 to 100) | Plant response rating, Nightshade, E. B. [7, 23] | Nightshade, E. B. plant response rating ([7]; scale 0 to 100) | Goosegrass plant response rating ([8]; Preemergence, scale 0 to 100) | Plant response rating, Soybean (soybean (Glycine max); [19]) | Plant response rating, Soybean (soybean (Glycine max); [25]) | Plant response rating, Soybean (soybean (Glycine max); [21]) | Soybean plant response rating (soybean (Glycine max); Preemergence, scale 0 to 100) | Plant response rating, Surinam Grass [9, 19] | Plant response rating, Surinam Grass [9, 25] | Plant response rating, Surinam Grass [9, 26] | Surinam Grass plant response rating ([9]; Preemergence, scale 0 to 100) | Foxtail, Giant plant response rating ([10]; Preemergence, scale 0 to 100) | Plant response rating, Russian Thistle [11, 23] | Plant response rating, Russian Thistle [11, 27] | Plant response rating, Russian Thistle ([11]; 62 g ai/ha, scale 0 to 100) | Russian Thistle plant response rating ([11]; scale 0 to 100) | Plant response rating, Sunflower [12, 23] | Plant response rating, Sunflower [12, 27] | Plant response rating, Sunflower ([12]; 62 g ai/ha, scale 0 to 100) | Sunflower plant response rating ([12]; scale 0 to 100)
40: Plant response rating, Barnyardgrass [2, 15] | Plant response rating, Sedge, Umbrella [3, 16]
